Experimental data reported in the supplement of paper PMC10307832.

Columns and labels:
Experiment in all cases: relative viability (nuclei count vs DMSO), 5 days (fraction); higher = more cells survive
[1] = compound: COc1cc(N2CCC(N3CCN(C)CC3)CC2)ccc1Nc1ncc(Cl)c(Nc2ccccc2S(=O)(=O)C(C)C)n1 [NVP-TAE684] + O=C(c1cc(Cc2n[nH]c(=O)c3ccccc23)ccc1F)N1CCN(C(=O)C2CC2)CC1 [Olaparib] (partner 8 µM)
Summary of the method: (§1)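 Lung cancer cell lines in 1536-well plates were dosed by pin tool the day after seeding, either with one drug alone or with a fixed anchor-drug dose plus five library-drug doses (not always all listed) in √10 steps. After 5 days, cells were fixed and their nuclei stained in one step (final 0.05% Triton X-100, 1% formaldehyde, 1 ug/ml Hoechst), then counted on 4× images. Relative viability is the nuclei count in treated wells divided by that in vehicle wells. Values are medians of duplicate plates.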

[2] = compound: COc1cc2/c(=N/c3ccc(Br)cc3F)nc[nH]c2cc1OCC1CCN(C)CC1 [Vandetanib] + NC(=O)Nc1cc(-c2cccc(F)c2)sc1C(=O)N[C@H]1CCCNC1 [AZD7762] (partner 0.2 µM)
Summary of the method: as §1

[3] = compound: COc1cc2/c(=N/c3ccc(Br)cc3F)nc[nH]c2cc1OCC1CCN(C)CC1 [Vandetanib] + CCNC(=O)c1noc(-c2cc(C(C)C)c(O)cc2O)c1-c1ccc(CN2CCOCC2)cc1 [Luminespib] (partner 0.01 µM)
Summary of the method: as §1

[4] = compound: C#Cc1cccc(Nc2ncnc3cc(OC)c(OCCCCCCC(=O)NO)cc23)c1 [CUDC-101] + Nc1ncn([C@H]2C[C@H](O)[C@@H](CO)O2)c(=O)n1 [Decitabine] (partner 2 µM)
Summary of the method: as §1

Cell Line | relative viability ([1]; first compound 0.2 µM) | relative viability ([1]; first compound 0.6325 µM) | relative viability ([1]; first compound 2 µM) | relative viability ([2]; first compound 0.02 µM) | relative viability ([2]; first compound 0.06325 µM) | relative viability ([2]; first compound 0.2 µM) | relative viability ([2]; first compound 0.6325 µM) | relative viability ([2]; first compound 2 µM) | relative viability ([3]; first compound 0.02 µM) | relative viability ([3]; first compound 0.06325 µM) | relative viability ([3]; first compound 0.2 µM) | relative viability ([3]; first compound 0.6325 µM) | relative viability ([3]; first compound 2 µM) | relative viability ([4]; first compound 0.01 µM) | relative viability ([4]; first compound 0.03162 µM) | relative viability ([4]; first compound 0.1 µM) | relative viability ([4]; first compound 0.3162 µM) | relative viability ([4]; first compound 1 µM)
A-427 | 0.814 | 0.674 | 0.631 | 0.684 | 0.674 | 0.719 | 0.62 | 0.61 | 0.892 | 0.822 | 0.927 | 1.08 | 0.926 | 0.617 | 0.619 | 0.591 | 0.568 | 0.554
EKVX | 0.868 | 0.678 | 0.464 | 0.693 | 0.692 | 0.611 | 0.694 | 0.547 | 0.878 | 0.86 | 0.956 | 0.827 | 0.65 | 0.322 | 0.446 | 0.33 | 0.323 | 0.299
NCI-H460 | 0.537 | 0.484 | 0.633 | 0.497 | 0.624 | 0.57 | 0.466 | 0.581 | 0.0345 | 0.0344 | 0.0312 | 0.0333 | 0.0336 | 0.522 | 0.459 | 0.423 | 0.533 | 0.433
HARA | 0.76 | 0.891 | 0.299 | 0.262 | 0.448 | 0.396 | 0.18 | 0.312 | 0.814 | 0.561 | 0.074 | 0.9 | 0.512 | 0.446 | 0.515 |  | 0.464 | 0.254
NCI-H1944 | 0.373 | 0.421 | 0.419 | 0.489 | 0.611 | 0.555 | 0.462 | 0.471 | 0.811 | 0.743 | 0.745 | 0.676 | 0.651 | 0.409 | 0.434 | 0.431 | 0.428 | 0.363
BEN | 1.04 | 0.971 | 0.894 | 0.69 | 0.622 | 0.585 | 0.633 | 0.661 | 0.448 | 0.333 | 0.469 | 0.297 | 0.351 | 0.724 | 0.656 | 0.709 | 0.649 | 0.498
PC-14 | 0.237 | 0.255 | 0.0711 | 0.361 | 0.282 | 0.25 | 0.164 | 0.13 | 0.234 | 0.152 | 0.184 | 0.13 | 0.131 | 0.253 | 0.249 | 0.158 | 0.179 | 0.0808
NCI-H322M | 0.715 | 0.723 | 0.558 | 0.518 | 0.567 | 0.605 | 0.496 | 0.374 | 0.805 | 0.8 | 0.889 | 0.834 | 0.504 | 0.65 | 0.686 | 0.625 | 0.651 | 0.517
NCI-H1651 | 0.181 | 0.186 | 0.173 | 0.431 | 0.425 | 0.462 | 0.442 | 0.486 | 1.09 | 1.01 | 0.171 | 0.901 | 0.641 | 0.671 | 0.645 | 0.643 | 0.594 | 0.515
LCLC-97TM1 | 0.443 | 0.326 | 0.154 | 0.185 | 0.306 | 0.299 | 0.261 | 0.139 | 0.691 | 0.787 | 0.749 | 0.721 | 0.778 | 0.286 | 0.24 | 0.227 | 0.228 | 0.191
NCI-H727 | 0.612 | 0.601 | 0.679 | 0.482 | 0.489 | 0.651 | 0.562 | 0.635 | 0.591 | 0.349 | 0.247 | 0.252 | 0.316 | 1.19 | 0.906 | 0.944 | 0.989 | 0.695
NCI-H1666 | 0.734 | 0.772 | 0.736 | 0.83 | 0.772 | 0.734 | 0.814 | 0.722 | 1.05 | 0.981 | 0.405 | 0.949 | 0.823 | 0.769 | 0.734 | 0.693 | 0.752 | 0.61
NCI-H1792 | 0.52 | 0.37 | 0.248 | 0.654 | 0.656 | 0.607 | 0.5 | 0.673 | 0.492 | 0.496 | 0.355 | 0.461 | 0.413 | 0.561 | 0.437 | 0.602 | 0.553 | 0.424
NCI-H1437 | 0.65 | 0.663 | 0.523 | 1.16 | 1.12 | 1.1 | 1.2 | 1.09 | 1.12 | 1.09 | 0.255 | 1.21 | 1.06 | 0.556 | 0.537 | 0.553 | 0.533 | 0.498
EPLC-272H | 0.321 | 0.577 | 0.162 | 0.23 | 0.428 | 0.244 | 0.201 | 0.189 | 0.265 |  | 0.272 | 0.756 | 0.276 | 0.327 | 0.363 | 0.341 | 0.301 | 0.309
HCC-15 | 0.745 | 0.748 | 0.577 | 1.29 | 1.04 | 1.18 | 1.33 | 1.15 | 0.343 | 0.293 | 0.0608 | 0.298 | 0.227 | 0.579 | 0.628 | 0.655 | 0.621 | 0.443
NCI-H2347 | 0.573 | 0.57 | 0.49 | 0.764 | 0.657 | 0.788 | 0.778 | 0.689 | 0.594 |  | 0.333 | 0.642 | 0.574 | 0.636 | 0.585 | 0.672 | 0.591 | 0.576
NCI-H838 | 0.737 | 0.611 | 0.252 | 0.902 | 0.895 | 0.976 | 1.03 | 0.894 | 0.354 | 0.353 | 0.145 | 0.333 | 0.278 | 0.45 | 0.516 | 0.49 | 0.484 | 0.369
